# Paper PMC6033897, “Characterization and Validation of a Human 3D Cardiac Microtissue for the Assessment of Changes in Cardiac Pathology” (Scientific Reports, 2018)
# Where a name gives a salt, the structure may show the parent alone.
# How the values were obtained:
# cardiac microtissues [1] = assay: Mitochondrial membrane potential (ΔΨm, TMRE imaging) in cardiac microtissues; type: cell-based, human; settings: read-out: Mitochondrial membrane potential (ΔΨm) IC50
# Description: (§1) Cardiac microtissues were stained with fluorescent probes in cell culture media, 40 µl media was removed and 40 µl of 2x multiplexed dye was added back to the well for 30 minutes at 37 °C, 5% CO2. Fluorescent probes used were ER-Tracker blue (2 µM) to measure endoplasmic reticulum (ER) integrity and TMRE (500 nM) to measure mitochondrial membrane potential (ΔΨm). All microtissues were imaged on a Cell Voyager 7000 (YokogawaInc.) and images captured using a 20x objective (Olympus UPLSAPO 0.75 NA, 0.6 mm WD), with a 2 × 2 bin. Plates are imaged live, prior to use the stage temperature was set to 37 °C and CO2 level at 5%. […] Transmitted light images were acquired using a 100 W Halogen lamp as an illumination source. Images were captured over a 60 μm range in the Z-axis with a 5 μm interval between slices. Z-stack images were output as a maximal projection of multiple z-planes.
# (§2) Maximum projection images were imported and analysed in the Columbus Platform (v2.7, Perkin Elmer Inc.).
# cardiac microtissues [2] = assay: Cellular viability (ATP depletion, CellTiter-Glo) in cardiac microtissues; type: cell-based, human; settings: read-out: Cellular viability (ATP depletion) IC50
# Description: Cellular ATP concentrations were assessed using the CellTiter-Glo® Luminescent Cell Viability Assay as per the manufacturer’s instructions (Promega); for cardiac microtissues 40 µl media was removed prior to the addition of 40 µl CellTiter-Glo® reagent. […] Data from the same treatment on minimum of 3 occasions were averaged to represent the mean ATP measurement.
# cardiac microtissues [3] = assay: ER integrity (ER-Tracker blue imaging) in cardiac microtissues; type: cell-based, human; settings: read-out: ER integrity IC50
# Description: as §1, §2
# [4] = total Cmax, therapeutically relevant maximum total plasma concentration; source not given; cited from earlier work
# cardiac microtissues [5] = assay: Therapeutic index (IC50 in cardiac microtissues divided by total Cmax); type: cell-based, human
# Description: The outcome of a drug being either toxic or non-toxic is determined by exposure. Consequently, it is important to consider therapeutically relevant maximum total plasma concentrations (Cmax) when investigating drug-induced toxicity. We questioned whether this approach can detect changes in drug-induced cardiac structure at relevant therapeutic concentrations. […] The cardiac structural changes of compounds could be divided into four categories: (1) at least one parameter modulated at a concentration of within 10-times the Cmax, (2) at least one parameter modulated at a concentration of within 100-times the Cmax, (3) changes in cardiac structure occurred at concentrations of above 100-times the Cmax concentration, (4) the changes in cardiac structure was not detected in this approach (i.e. no IC50 value could be calculated).
# [6] = Homo sapiens, cardiac microtissues, 72 hours, geometric mean
# [7] = cardiac microtissues, 72 hours, geometric mean
Compound,IC50 (cardiac microtissues [1]; [6]) [µM],IC50 (cardiac microtissues [2]; [6]) [µM],IC50 (cardiac microtissues [3]; [6]) [µM],Cmax [4] [nM],also measured
Nc1nc2c(ncn2COCCO)c(=O)[nH]1 [Acyclovir],> 100,> 100,> 100,6660,
C[C@@H]1[C@H](O)[C@@H](C)/C=C/C=C/C=C/C=C/C=C/C=C/C=C/[C@H](O[C@@H]2O[C@H](C)[C@@H](O)[C@H](N)[C@@H]2O)C[C@@H]2O[C@](O)(C[C@@H](O)C[C@@H](O)[C@H](O)CC[C@@H](O)C[C@@H](O)CC(=O)O[C@H]1C)C[C@H](O)[C@H]2C(=O)O [Amphotericin B],> 50,37.6,3.56,9000,
CC(C)C[C@H](NC(=O)[C@H](Cc1ccccc1)NC(=O)c1cnccn1)B(O)O [Bortezomib],1.62,0.35,91.8,290,
O=C1CC2(CCCC2)CC(=O)N1CCCCN1CCN(c2ncccn2)CC1 [Buspirone HCl],> 100,56.4,> 100,30,
COc1cc(N)c(Cl)cc1C(=O)NC1CCN(CCCOc2ccc(F)cc2)CC1OC (stereo not drawn) [Cisapride Hydrate],,,,170,IC50 (cardiac microtissues [1]; [7]): > 100 µM; IC50 (cardiac microtissues [2]; [7]): 76.4 µM; IC50 (cardiac microtissues [3]; [7]): 32.8 µM
CN1CCN(C2=Nc3cc(Cl)ccc3Nc3ccccc32)CC1 [Clozapine],,,,470,
O=P1(N(CCCl)CCCl)NCCCO1 (stereo not drawn) [Cyclophosphamide],,,,153000,"IC50 (cardiac microtissues [1]; Homo sapiens, 72 h): 65.7 µM; IC50 (cardiac microtissues [2]; Homo sapiens, 72 h): 54.4 µM; IC50 (cardiac microtissues [3]; Homo sapiens, 72 h): 60.7 µM"
Cc1nc(Nc2ncc(C(=O)Nc3c(C)cccc3Cl)s2)cc(N2CCN(CCO)CC2)n1 [Dasatinib],> 100,27.1,> 100,,"Therapeutic index (TI): lowest IC50 of ΔΨm, ER integrity or ATP depletion / total Cmax (cardiac microtissues [5]): ≤ 100 times Cmax"
C#Cc1cccc(Nc2ncnc3cc(OCCOC)c(OCCOC)cc23)c1 [Erlotinib],> 30,20.8,> 30,3000,
O=c1[nH]cc(F)c(=O)[nH]1 [Fluorouracil],11.3,27.5,60,4610,
Cc1ccc(C)c(OCCCC(C)(C)C(=O)O)c1 [Gemfibrozil],> 100,> 100,> 100,99900,
CC(=O)[C@]1(O)Cc2c(O)c3c(c(O)c2[C@@H](O[C@H]2C[C@H](N)[C@H](O)[C@H](C)O2)C1)C(=O)c1ccccc1C3=O [Idarubicin HCl],0.97,0.03,1.67,120,
